# Test: in vitro
# Details: human, hek293t cells
row,SMILES,"viability at 48 h, 25 µM"
1,"COCCNC(=O)C(C#N)=Cc1c(Cl)cccc1Cl [8-O13, 2-cyano-3-(2,6-dichlorophenyl)-N-(2-methoxyethyl)prop-2-enamide]",55.9%
2,"COc1ccc(NC(=O)C(C#N)=Cc2cccs2)cc1 [8-O14, 2-cyano-N-(4-methoxyphenyl)-3-(thiophen-2-yl)prop-2-enamide]",75.7%
3,"N#CC(=Cc1c(F)c(F)c(F)c(F)c1F)C(=O)NC1CCCCC1 [8-O15, 2-cyano-N-cyclohexyl-3-(2,3,4,5,6-pentafluorophenyl)prop-2-enamide]",0.544%
4,"N#CC(=Cc1ccc(C#N)cc1)C(=O)Nc1cccc2ccccc12 [8-O16, 2-cyano-3-(4-cyanophenyl)-N-(naphthalen-1-yl)prop-2-enamide]",38.3%
5,"COc1cccc(NC(=O)C(C#N)=Cc2ccc(O)cc2)c1 [8-O17, 2-cyano-3-(4-hydroxyphenyl)-N-(3-methoxyphenyl)prop-2-enamide]",82.7%
6,"N#CC(=CC=Cc1ccccc1)C(=O)Nc1ccc(F)c(Cl)c1 [8-O18, N-(3-chloro-4-fluorophenyl)-2-cyano-5-phenylpenta-2,4-dienamide]",76.2%
7,"N#CC(=Cc1cccc2ccccc12)C(=O)NCc1ccccc1 [8-O19, N-benzyl-2-cyano-3-(naphthalen-1-yl)prop-2-enamide]",48%
8,"Cc1cccc(C)c1NC(=O)C(C#N)=Cc1c(C)n[nH]c1C [8-O20, 2-cyano-3-(3,5-dimethyl-1H-pyrazol-4-yl)-N-(2,6-dimethylphenyl)prop-2-enamide]",51.4%
9,"COCCNC(=O)C(C#N)=Cc1c(F)cccc1Cl [8-O21, 3-(2-chloro-6-fluorophenyl)-2-cyano-N-(2-methoxyethyl)prop-2-enamide]",94.2%
10,"CCc1ccc(-c2nn(-c3ccccc3)cc2C=C(C#N)C(N)=O)cc1 [8-O22, 2-cyano-3-[3-(4-ethylphenyl)-1-phenyl-1H-pyrazol-4-yl]prop-2-enamide]",70.6%
11,"COc1cccc(NC(=O)C(C#N)=Cc2cccc(O)c2)c1 [8-P03, 2-cyano-3-(3-hydroxyphenyl)-N-(3-methoxyphenyl)prop-2-enamide]",120%
12,"N#CC(=Cc1cccc(Cl)c1Cl)C(=O)NCc1ccco1 [8-P04, 2-cyano-3-(2,3-dichlorophenyl)-N-[(furan-2-yl)methyl]prop-2-enamide]",52.4%
13,"COc1cc(C=C(C#N)C(=O)Nc2ccc(C)cc2)cc(Cl)c1O [8-P05, 3-(3-chloro-4-hydroxy-5-methoxyphenyl)-2-cyano-N-(4-methylphenyl)prop-2-enamide]",95.6%
14,"CC(C)NC(=O)C(C#N)=Cc1cccc2ccccc12 [8-P06, 2-cyano-3-(naphthalen-1-yl)-N-(propan-2-yl)prop-2-enamide]",103%
15,"COc1ccc(C=C(C#N)C(=O)Nc2ccccc2C)cc1 [8-P07, 2-cyano-3-(4-methoxyphenyl)-N-(2-methylphenyl)prop-2-enamide]",114%
16,"COc1cc(C=C(C#N)C(N)=O)ccc1OC(F)F [8-P08, 2-cyano-3-[4-(difluoromethoxy)-3-methoxyphenyl]prop-2-enamide]",82.2%
17,"N#CC(=Cc1c(Cl)cccc1Cl)C(=O)Nc1nccs1 [8-P09, 2-cyano-3-(2,6-dichlorophenyl)-N-(1,3-thiazol-2-yl)prop-2-enamide]",109%
18,"N#CC(=Cc1ccccc1)C(=O)NCc1ccc(F)cc1 [8-P10, 2-cyano-N-[(4-fluorophenyl)methyl]-3-phenylprop-2-enamide]",89%
19,"CCc1cccc(CC)c1NC(=O)C(C#N)=Cc1ccc(C)o1 [8-P11, 2-cyano-N-(2,6-diethylphenyl)-3-(5-methylfuran-2-yl)prop-2-enamide]",108%
20,"COc1ccc2ccccc2c1C=C(C#N)C(=O)N1CCCC1 [8-P12, 3-(2-methoxynaphthalen-1-yl)-2-(pyrrolidine-1-carbonyl)prop-2-enenitrile]",75.4%
21,"Cc1ccc(C=C(C#N)C(=O)Nc2nccs2)s1 [8-P13, 2-cyano-3-(5-methylthiophen-2-yl)-N-(1,3-thiazol-2-yl)prop-2-enamide]",109%
22,"N#CC(=Cc1cccc(O)c1)C(=O)NCc1ccc(Cl)cc1 [8-P14, N-[(4-chlorophenyl)methyl]-2-cyano-3-(3-hydroxyphenyl)prop-2-enamide]",64.4%
23,"COc1ccc(C=C(C#N)C(=O)Nc2ccccc2C)cc1O [8-P15, 2-cyano-3-(3-hydroxy-4-methoxyphenyl)-N-(2-methylphenyl)prop-2-enamide]",120%
24,"CC(NC(=O)C(C#N)=Cc1ccccc1F)c1ccccc1 (stereo not drawn) [8-P16, 2-cyano-3-(2-fluorophenyl)-N-(1-phenylethyl)prop-2-enamide]",61.8%
25,"CCCCNC(=O)C(C#N)=Cc1ccncc1 [8-P17, N-butyl-2-cyano-3-(pyridin-4-yl)prop-2-enamide]",115%
26,"COc1ccc2ccccc2c1C=C(C#N)C(=O)NC1CCCCC1 [8-P18, 2-cyano-N-cyclohexyl-3-(2-methoxynaphthalen-1-yl)prop-2-enamide]",66.4%

row,SMILES,"viability at 48 h, 25 µM"
1,"Cc1ccc(C=C(C#N)C(=O)NCc2ccco2)o1 [8-P19, 2-cyano-N-[(furan-2-yl)methyl]-3-(5-methylfuran-2-yl)prop-2-enamide]",95.3%
2,"N#CC(=CC=Cc1ccccc1[N+](=O)[O-])C(=O)Nc1ccccc1 [8-P20, 2-cyano-5-(2-nitrophenyl)-N-phenylpenta-2,4-dienamide]",48%
3,"Cc1cc(C)c(C=C(C#N)C(=O)Nc2nccs2)cc1C [8-P21, 2-cyano-N-(1,3-thiazol-2-yl)-3-(2,4,5-trimethylphenyl)prop-2-enamide]",113%
4,"N#CC(=Cc1cccc(Cl)c1Cl)C(=O)Nc1ccc(F)cc1 [8-P22, 2-cyano-3-(2,3-dichlorophenyl)-N-(4-fluorophenyl)prop-2-enamide]",92.8%
5,"N#CC(=Cc1cccc(F)c1F)C(N)=O [9-A03, 2-cyano-3-(2,3-difluorophenyl)prop-2-enamide]",115%
6,"N#CC(=Cc1ccc(OC(F)F)cc1)C(=O)NC1CCCCC1 [9-A04, 2-cyano-N-cyclohexyl-3-[4-(difluoromethoxy)phenyl]prop-2-enamide]",66.2%
7,"CC(O)=C(C#N)C(=O)Nc1ccc(C(F)(F)F)cc1 [9-A05, 2-cyano-3-hydroxy-N-[4-(trifluoromethyl)phenyl]but-2-enamide]",90.6%
8,"CCOc1ccccc1NC(=O)C(C#N)=Cc1c(C)[nH]c2ccccc12 [9-A06, 2-cyano-N-(2-ethoxyphenyl)-3-(2-methyl-1H-indol-3-yl)prop-2-enamide]",100%
9,"Cc1cc(C=C(C#N)C(=O)Nc2ccccc2)c(C)n1CC(C)C [9-A07, 2-cyano-3-[2,5-dimethyl-1-(2-methylpropyl)-1H-pyrrol-3-yl]-N-phenylprop-2-enamide]",115%
10,"N#CC(=Cc1ccc(-c2ccccc2F)o1)C(=O)Nc1nccs1 [9-A08, 2-cyano-3-[5-(2-fluorophenyl)furan-2-yl]-N-(1,3-thiazol-2-yl)prop-2-enamide]",110%
11,"CC(C)NC(=O)C(C#N)=Cc1ccccc1Cl [9-A09, 3-(2-chlorophenyl)-2-cyano-N-(propan-2-yl)prop-2-enamide]",95.9%
12,"COc1ccccc1NC(=O)C(C#N)=Cc1cc(C)c(C)cc1C [9-A10, 2-cyano-N-(2-methoxyphenyl)-3-(2,4,5-trimethylphenyl)prop-2-enamide]",115%
13,"CC(C)NC(=O)C(C#N)=Cc1c(Cl)nc2ccccn12 [9-A11, 3-{2-chloroimidazo[1,2-a]pyridin-3-yl}-2-cyano-N-(propan-2-yl)prop-2-enamide]",112%
14,"CC(=O)N(c1ccccc1)c1nc(C=C(C#N)C(=O)NC2CC2)cs1 [9-A12, 2-cyano-N-cyclopropyl-3-[2-(N-phenylacetamido)-1,3-thiazol-4-yl]prop-2-enamide]",123%
15,"CC(C)NC(=O)C(C#N)=Cc1cccc(Cl)c1 [9-A13, 3-(3-chlorophenyl)-2-cyano-N-(propan-2-yl)prop-2-enamide]",99.7%
16,"CN(C)c1ccc(C=C(C#N)C(=O)N2CCC2)cc1 [9-A14, 2-(azetidine-1-carbonyl)-3-[4-(dimethylamino)phenyl]prop-2-enenitrile]",106%
17,"N#CC(=Cc1ccc2c(c1)OCO2)C(=O)NCc1ccco1 [9-A15, 3-(1,3-dioxaindan-5-yl)-2-cyano-N-[(furan-2-yl)methyl]prop-2-enamide]",119%
18,"N#CC(=Cc1cnn(CCCl)c1)C(=O)NC1CCCCC1 [9-A16, 3-[1-(2-chloroethyl)-1H-pyrazol-4-yl]-2-cyano-N-cyclohexylprop-2-enamide]",109%
19,"COc1cccc2cc(C=C(C#N)C(=O)Nc3ccc(C)cc3)oc12 [9-A17, 2-cyano-3-(7-methoxy-1-benzofuran-2-yl)-N-(4-methylphenyl)prop-2-enamide]",89%
20,"COc1ccc(C=C(C#N)C(=O)Nc2ccccc2C(=O)O)cc1O [9-A18, 2-[2-cyano-3-(3-hydroxy-4-methoxyphenyl)prop-2-enamido]benzoic acid]",104%
21,"COc1ccc(C=C(C#N)C(=O)Nc2ccc(C)cc2)cc1 [9-A19, 2-cyano-3-(4-methoxyphenyl)-N-(4-methylphenyl)prop-2-enamide]",103%
22,"N#CC(=Cc1cccc(O)c1)C(=O)Nc1ccccc1C(F)(F)F [9-A20, 2-cyano-3-(3-hydroxyphenyl)-N-[2-(trifluoromethyl)phenyl]prop-2-enamide]",109%
23,"N#CC(C(=O)N1CCCCC1)=C1N=C(N)c2ccccc21 [9-A21, 2-(3-amino-1H-isoindol-1-ylidene)-3-oxo-3-(piperidin-1-yl)propanenitrile]",102%
24,"N#CC(=Cc1ccc(C#N)cc1)C(=O)Nc1ccc(F)c(Cl)c1 [9-A22, N-(3-chloro-4-fluorophenyl)-2-cyano-3-(4-cyanophenyl)prop-2-enamide]",102%
25,"N#CC(=Cc1ccc(N2CCOCC2)cc1)C(=O)Nc1ccccc1F [9-B03, 2-cyano-N-(2-fluorophenyl)-3-[4-(morpholin-4-yl)phenyl]prop-2-enamide]",89.3%
